Measurements from paper PMC9369794 (Molecules, 2022).
Where a name gives a salt, the structure may show the parent alone.

Experiments:
[1] = Hydrodynamic diameter and colloidal stability of aggregates by dynamic light scattering; assay type: physicochemical; conditions: for mean size (hydrodynamic diameter) / zeta potential: 37 °C; for PDI: sd^2/mean size^2
Description: In contrary, all spectra gave a hypsochromic shift and loss of fine-structure when the DMSO solutions were diluted with PBS, which refers to the formation of H-type (card-pack) aggregates (Figures S1–S12). Since DMSO-containing aqueous systems are more suitable for biological studies, we examined these solution by dynamic light scattering (DLS) spectroscopy to gain more information about the particles. The concentrations of the examined solutions were the same as used in the ABTS/TEAC measurements (0.3125–5.00 μM, see next section).
Size determination of aggregates and the colloidal stability of the sample dispersions were determined by dynamic light scattering measurements, where the hydrodynamic diameter of particles, and zeta potential values were collected. The number-weighted size distribution indicated one main peak in each case, the polydispersity index (PDI) was calculated as sd^2/mean size^2. For the particle size analysis Malvern Zetasizer Nano S instrument and for the zeta potential determination Malvern Zetasizer Nano Z instrument were used (Malvern Panalytical Ltd., Great Malvern, Worcestershire, UK). The measurements were carried out in autocorrelation mode, and the following parameters were kept constant: scattering angle 173°, attenuator 11 and its factor 0.0146, measurement position 4.65 mm. The concentrations of sample dispersions were between 0.3125 and 5 µM. The dispersion medium was PBS. Each samples was examined after 6 min incubation period at 37 °C.

[2] = FRAP assay for the antioxidant capacity; parameters: key to FRAP: slope of concentration-absorbance line divided by Trolox slope; conditions: stock in THF, acetate buffer pH 3.0, 37 °C, 15 min; ratio of slopes to trolox (melatonin in EtOH)
Description: In the FRAP method the antioxidant reduces Fe^3+ to Fe^2+ in an acidic medium. These experiments were performed in an acetate buffer of pH 3.0, the stock solutions of the examined antioxidants were prepared in THF. The antioxidant capacities were compared to that of Trolox as a standard, just like in the ABTS assays.
A modified literature process was used. The FRAP reagent should also be prepared freshly each day. 2,4,6-Tris(2-pyridyl)-s-triazin (TPTZ) was dissolved in a 200 mM HCl solution and diluted with water to get a final 40 mM HCl and 10 mM TPTZ concentration. For the preparation of the FRAP reagent 30 mL of 20 mM FeCl3 solution and 30 mL of 10 mM TPTZ solution were mixed, and 300 mL of 300 mM acetate buffer with pH 3.0 was added (a pH lower than usual was used to avoid the precipitation of the TPTZ). The FRAP reagent was incubated at 37 °C for 15 min. 150 μL of antioxidant dissolved in THF was mixed with 2.85 mL FRAP reagent solution, and incubated at 37 °C for 15 min in dark. Measurements were carried out at each antioxidant concentration (0, 7.5; 10; 12.5; 15; 17.5 μM final concentration) in triplicate. In the 0 μM solution the antioxidant solution was substituted with acetate buffer (pH 3.0). The FRAP was determined at 600 nm: the absorbance values were plotted as a function of concentration of the sample compounds and that of Trolox for the standard reference data. The FRAP values were calculated as in the ABTS assays, i.e., the slope of the concentration-absorbance lines for the carotenoid derivatives was divided by that for the trolox.

[3] = Study of aggregation by UV-Vis spectrophotometry; assay type: physicochemical
Excerpt: It has been known for a long while that carotenoids or their derivatives can be prone to supramolecular organization in water or water-organic solvent mixtures. This behaviour is especially interesting because this higher organization can modulate or alter biological properties of carotenoids, as well [40]. A tendency to form supramolecular structures can be tested by recording the UV spectra in an organic solvent and increasing the ratio of water in the sample. […] We have some recent experience of such behaviour of carotenoid-flavonoid conjugates.
All of our adducts were tested with the method above using tetrahydrofurane (THF) or dimethylsulfoxide (DMSO) with increasing ratio of phosphate-buffered saline (PBS), which was the medium of the antioxidant measurements. […]
1. Study of Aggregation by UV-Vis Spectrophotometry
Starting from THF solutions: each conjugate was dissolved in freshly distilled THF and the solutions were diluted
either with THF or THF-PBS mixtures to obain final solutions of identical carotenoid concentration. […]
Figure S1. UV-spectra of 8’-apo-β-carotenol succinate ( 6) ( a) in THF and in THF-PBS mixtures ( 1:1 , 1:3); (b) in DMSO
Figure S2. UV-spectra of zeaxanthin bissuccinate ( 7) ( a) in THF and in THF-PBS mixtures ( 1:1 , 1:3); (b) in DMSO and
Figure S3. UV-spectra of zeaxanthin monosuccinate ( 11) ( a) in THF and in THF-PBS mixtures ( 1:1 , 1:3); (b) in DMSO […]

[4] = TEAC assay using ABTS radical; conditions: 6 min, ratio of slopes to trolox (melatonin dissolved in EtOH); for TEAC from DMSO: stock in DMSO diluted with PBS pH 7.4, 37 °C; for TEAC from THF: stock in THF diluted with PBS pH 7.4, 37 °C
Description: This method uses a redox reaction between ABTS^•+ radical cation and the examined antioxidants, which act as the reducing agents. […] As the carotenoids and the conjugates are poorly soluble in water, they were dissolved first either in small amounts of freshly distilled tetrahydrofuran (THF) or in dimethylsulfoxide (DMSO), and these stock solutions were diluted with phosphate-buffered saline (PBS) to the final nominal concentration.
The TEAC values were determined in isotonic phosphate buffer of pH 7.4. The buffer solution was made by dissolving 9.55 g of DPBS powder in distilled water to form 1L of solution (composition: 0.138 M NaCl, 0.0027 M KCl, 0.0081 M Na2HPO4, 0.0015 M KH2PO4). The assay was performed according to a literature process with slight modifications. The ABTS^•+ radical cation was produced by reacting 7 mM 2,2′-azino-bis(3-ethylbenzothiazoline-6-sulfonic acid) and 2.45 mM potassium persulfate in water. The stock ABTS^•+ solution was prepared 12–16 h before the experiments, and stored at room temperature in dark. The absorbance of the ABTS^•+ solution was set to 0.70 ± 0.05 at 734 nm by a ca. 100-fold dilution with phosphate-buffered saline (PBS). […] The stock solutions were diluted with PBS such that equal amounts of the diluted solutions were added to the ABTS^•+ reagent to obtain final antioxidants concentrations of 0.3125, 0.625, 1.25, 2.50, 3.75, 5 μM, respectively. In the blank (0 μM), the solutions of the antioxidants were substituted with THF or DMSO.
The antioxidants were incubated with ABTS^•+ solution at 37 °C for 6 min. During the reaction of ABTS^•+ with the antioxidants the absorbance of the solution decreases. The percentage inhibition of absorbance at 734 nm was calculated as (A0 − Aantioxidant)/A0, where A0 is the absorbance of the ABTS^•+ solution and Aantioxidant is the absorbance measured after the addition of the antioxidant. The determinations were carried out at each concentration in triplicate. The calculated values were plotted against the final concentration of the antioxidants. The slopes of the curves were compared with that for trolox, the TEAC value is the ratio of the slopes for the antioxidant and for trolox.

[5] = 0.3125 μM in PBS from DMSO stock
[6] = 0.625 μM in PBS from DMSO stock

**Q.** Which melting point does the source give for `CC1=C(/C=C/C(C)=C/C=C/C(C)=C/C=C/C=C(C)/C=C/C=C(C)/C=C/C2=C(C)C[C@@H](OC(=O)CCC(=O)O)CC2(C)C)C(C)(C)CCC1` (as salt: succinate) [Compound 8, β-Cryptoxanthin succinate] here?
**A.** Its melting point is 142 to 143 °C.

**Q.** Which results are given for `COc1ccc2[nH]cc(CCNC(=O)CNC(=O)CCC(=O)O[C@@H]3CC(C)=C(/C=C/C(C)=C/C=C/C(C)=C/C=C/C=C(C)/C=C/C=C(C)/C=C/C4=C(C)C[C@@H](OC(=O)CCC(=O)NCC(=O)NCCc5c[nH]c6ccc(OC)cc56)CC4(C)C)C(C)(C)C3)c2c1` [Compound 14, Zeaxanthin-bismelatonin conjugate]?
**A.** mean size (hydrodynamic diameter) [1, 5]: too large for DLS; zeta potential [1, 5]: −0.7 mV; mean size (hydrodynamic diameter) [1, 6]: too large for DLS; zeta potential [1, 6]: −0.7 mV; mean size (hydrodynamic diameter) ([1]; 1.25 μM in PBS from DMSO stock): too large for DLS; zeta potential ([1]; 1.25 μM in PBS from DMSO stock): −1.0 mV; mean size (hydrodynamic diameter) ([1]; 2.5 μM in PBS from DMSO stock): 137.50 nm; zeta potential ([1]; 2.5 μM in PBS from DMSO stock): −0.4 mV; PDI ([1]; 2.5 μM in PBS): 0.0147; mean size (hydrodynamic diameter) ([1]; 3.75 μM in PBS from DMSO stock): 91.77 nm; zeta potential ([1]; 3.75 μM in PBS from DMSO stock): −0.2 mV; PDI ([1]; 3.75 μM in PBS): 0.0108; mean size (hydrodynamic diameter) ([1]; 5 μM in PBS from DMSO stock): 705.10 nm; zeta potential ([1]; 5 μM in PBS from DMSO stock): 0.0 mV; PDI ([1]; 5 μM in PBS): 0.0659; FRAP [2]: 0.206; type of aggregates formed ([3]; from THF:aqueous solutions): J-type (head-to-tail) aggregates; change of UV spectrum with increasing ratio of PBS ([3]; starting from THF solutions): bathochromic shift; TEAC from DMSO [4]: 2.79; TEAC from THF [4]: 2.080; melting point: 149 to 150 °C

**Q.** With `CC1=C[C@H](O)CC(C)(C)[C@H]1/C=C/C(C)=C/C=C/C(C)=C/C=C/C=C(C)/C=C/C=C(C)/C=C/C1=C(C)C[C@@H](O)CC1(C)C` [Compound 5, lutein, reference compound] as the compound, how does the FRAP [2] read?
**A.** The FRAP was 0.161.

**Q.** What about the “TEAC from DMSO” value [4] of the same compound?
**A.** Its value is 1.02.

**Q.** And the “TEAC from THF” value [4]?
**A.** Its value is 1.571.

**Q.** With `CC1=C(/C=C/C(C)=C/C=C/C(C)=C/C=C/C=C(C)/C=C/C=C(C)/C=C/C(=O)[C@]2(C)C[C@@H](OC(=O)CCC(=O)O)CC2(C)C)C(C)(C)C[C@H](OC(=O)CCC(=O)O)C1` (as salt: succinate) [Compound 9, Capsanthin bissuccinate] as the compound, how does the melting point read?
**A.** Its melting point is 143 to 144 °C.

**Q.** With `CC1=C(/C=C/C(C)=C/C=C/C(C)=C/C=C/C=C(C)/C=C/C=C(C)/C=C/C(=O)[C@]2(C)C[C@@H](O)CC2(C)C)C(C)(C)C[C@H](O)C1` [Compound 4, capsanthin, reference compound] as the compound, how does the FRAP [2] read?
**A.** The FRAP was 0.197.

**Q.** What about the “TEAC from DMSO” value [4] of the same compound?
**A.** Its value is 0.62.

**Q.** And the “TEAC from THF” value [4]?
**A.** The value was 1.036.

**Q.** With `CC1=C[C@H](OC(=O)CCC(=O)O)CC(C)(C)[C@H]1/C=C/C(C)=C/C=C/C(C)=C/C=C/C=C(C)/C=C/C=C(C)/C=C/C1=C(C)C[C@@H](OC(=O)CCC(=O)O)CC1(C)C` (as salt: succinate) [Compound 10, Lutein bissuccinate] as the compound, how does the melting point read?
**A.** Its melting point is 148 to 149 °C.

**Q.** What does the source list for `CC1=C(/C=C/C(C)=C/C=C/C(C)=C/C=C/C=C(C)/C=C/C=C(\C)C=O)C(C)(C)CCC1` [8'-Apo-β-carotenal, 8′-apo-β-carotenal, reference compound]?
**A.** FRAP [2]: 0.443; TEAC from DMSO [4]: 1.19; TEAC from THF [4]: 0.953

**Q.** With `CC1=C(/C=C/C(C)=C/C=C/C(C)=C/C=C/C=C(C)/C=C/C=C(\C)COC(=O)CCC(=O)O)C(C)(C)CCC1` (as salt: succinate) [Compound 6, 8′-Apo-β-carotenol succinate] as the compound, how does the melting point read?
**A.** Its melting point is 123 to 124 °C.

**Q.** For `CC1=C(/C=C/C(C)=C/C=C/C(C)=C/C=C/C=C(C)/C=C/C=C(C)/C=C/C2=C(C)C[C@@H](O)CC2(C)C)C(C)(C)C[C@H](O)C1` [Compound 2, zeaxanthin, reference compound], which FRAP [2] is on record?
**A.** The FRAP was 0.351.

**Q.** What about the “TEAC from DMSO” value [4] of the same compound?
**A.** The value was 2.70.

**Q.** And the “TEAC from THF” value [4]?
**A.** Its value is 2.016.

**Q.** Which results are given for `CC1=C(/C=C/C(C)=C/C=C/C(C)=C/C=C/C=C(C)/C=C/C=C(C)/C=C/C2=C(C)C[C@@H](O)CC2(C)C)C(C)(C)CCC1` [Compound 3, cryptoxanthin, reference compound]?
**A.** FRAP [2]: 0.441; TEAC from DMSO [4]: 1.61; TEAC from THF [4]: 2.062

**Q.** Which melting point does the source give for `CC1=C(/C=C/C(C)=C/C=C/C(C)=C/C=C/C=C(C)/C=C/C=C(C)/C=C/C2=C(C)C[C@@H](OC(=O)CCC(=O)O)CC2(C)C)C(C)(C)C[C@H](OC(=O)CCC(=O)O)C1` (as salt: succinate) [Compound 7, Zeaxanthin bissuccinate] here?
**A.** Its melting point is 152 to 153 °C.
